This passage reports IC50 results from US10954232B2, “Pyrazole derivative as ALK5 inhibitor and uses thereof” (HANMI PHARMACEUTICAL CO., LTD., priority 2016, dated 2021).

By IC50 is commonly meant the concentration needed to halve the response being measured.

This assay concerns the target T1, ALK5 kinase (Homo sapiens, UniProt P36897).
T1 construct: GST; purchased Thermo Fisher Scientific Solutions
T1 sequence (P36897 34-503): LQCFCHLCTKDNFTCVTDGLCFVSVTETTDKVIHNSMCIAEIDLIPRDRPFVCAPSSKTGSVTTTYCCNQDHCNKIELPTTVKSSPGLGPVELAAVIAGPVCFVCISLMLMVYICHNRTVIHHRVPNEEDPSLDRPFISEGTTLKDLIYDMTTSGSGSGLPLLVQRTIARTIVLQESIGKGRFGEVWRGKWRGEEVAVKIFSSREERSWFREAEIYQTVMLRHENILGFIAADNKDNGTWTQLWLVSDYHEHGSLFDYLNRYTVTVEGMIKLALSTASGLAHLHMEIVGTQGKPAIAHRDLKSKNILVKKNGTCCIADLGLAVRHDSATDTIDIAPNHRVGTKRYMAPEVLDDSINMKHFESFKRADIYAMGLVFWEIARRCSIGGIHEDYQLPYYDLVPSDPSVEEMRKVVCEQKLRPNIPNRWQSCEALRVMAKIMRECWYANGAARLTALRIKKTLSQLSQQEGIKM
Briefly: Activity inhibition test on ALK5 enzyme (LanthaScreen Eu binding kinase assay). Conditions: kinase tracer 178, 60 minutes at room temperature. In a few lines:
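TR-FRET tracer-displacement format with final 5 nM ALK5, 2 nM Eu-GST antibody and 10 nM kinase tracer 178. Compound dilution series ran 1 μM–0.0001 μM, incubated 60 min at room temperature with stirring. Fluorescence was read ([…]), and IC50 came from percent inhibition versus control.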

`Cc1cccc(-n2nc(C(=O)Nc3cccc([S+](C)[O-])c3)cc2-c2ccc3ncnn3c2)n1` (stereo not drawn) [Example 145, 5-([1,2,4]triazolo[1,5-α]pyridin-6-yl)-N-(3-(methylsulfinyl)phenyl)-1-(6-methylpyridin-2-yl)-1H-pyrazole-3-carboxyamide]: the IC50 is 15 nM.

For the compound `Cc1cccc(-n2nc(C(=O)Nc3ccc([S+](C)[O-])cc3)cc2-c2ccc3ncnn3c2)n1` (stereo not drawn) [Example 146, 5-([1,2,4]triazolo[1,5-α]pyridin-6-yl)-N-(4-(methylsulfinyl)phenyl)-1-(6-methylpyridin-2-yl)-1H-pyrazole-3-carboxyamide], the IC50 stood at 6 nM.

`Cc1cccc(-n2nc(C(=O)Nc3ccc(S(C)(=O)=O)cc3)cc2-c2ccc3ncnn3c2)n1` [Example 147, 5-([1,2,4]triazolo[1,5-α]pyridin-6-yl)-N-(4-(methylsulfonyl)phenyl)-1-(6-methylpyridin-2-yl)-1H-pyrazole-3-carboxyamide]: the IC50 came to 3.7 nM.

In turn, `Cc1cccc(-n2nc(C(=O)Nc3ccc(S(N)(=O)=O)cc3)cc2-c2ccc3ncnn3c2)n1` [Example 148, 5-([1,2,4]triazolo[1,5-α]pyridin-6-yl)-N-(4-sulfamoylphenyl)-1-(6-methylpyridin-2-yl)-1H-pyrazole-3-carboxyamide] registered an IC50 of 8.3 nM.

Turning to `Cc1cccc(-n2nc(C(=O)Nc3ccc(S(C)(=N)=O)cc3)cc2-c2ccc3ncnn3c2)n1` (stereo not drawn) [Example 149, 5-([1,2,4]triazolo[1,5-α]pyridin-6-yl)-N-(4-(S-methylsulfonimidoyl)phenyl)-1-(6-methylpyridin-2-yl)-1H-pyrazole-3-carboxyamide], the IC50 turned out to be 7.7 nM.

`CCCS(=O)(=O)c1ccc(NC(=O)c2cc(-c3ccc4ncnn4c3)n(-c3cccc(C)n3)n2)cc1` [Example 150, 5-([1,2,4]triazolo[1,5-α]pyridin-6-yl)-N-(4-(propylsulfonyl)phenyl)-1-(6-methylpyridin-2-yl)-1H-pyrazole-3-carboxyamide] returned an IC50 of 4.8 nM.

`CCCS(=O)(=O)c1ccc(NC(=O)c2cc(-c3ccc4ncnn4c3)n(-c3cccc(C)n3)n2)cc1` [Example 151, 5-([1,2,4]triazolo[1,5-α]pyridin-6-yl)-N-(4-(propylsulfonyl)phenyl)-1-(6-methylpyridin-2-yl)-1H-pyrazole-3-carboxyamide]: the IC50 was found to be 2.7 nM.

In turn, `Cc1cccc(-n2nc(C(=O)Nc3ccc(F)nc3)cc2-c2ccc3ncnn3c2)n1` [Example 152, 5-([1,2,4]triazolo[1,5-α]pyridin-6-yl)-N-(6-fluoropyridin-3-yl)-1-(6-methylpyridin-2-yl)-1H-pyrazole-3-carboxyamide] showed an IC50 of 4.6 nM.

On to `Cc1cccc(-n2nc(C(=O)Nc3ccc(Cl)nc3)cc2-c2ccc3ncnn3c2)n1` [Example 153, 5-([1,2,4]triazolo[1,5-α]pyridin-6-yl)-N-(6-chloropyridin-3-yl)-1-(6-methylpyridin-2-yl)-1H-pyrazole-3-carboxyamide], for which the IC50 is 25 nM.

As to `COc1ccc(NC(=O)c2cc(-c3ccc4ncnn4c3)n(-c3cccc(C)n3)n2)cn1` [Example 154, 5-([1,2,4]triazolo[1,5-α]pyridin-6-yl)-N-(6-methoxypyridin-3-yl)-1-(6-methylpyridin-2-yl)-1H-pyrazole-3-carboxyamide], the IC50 was around 10 nM.

The compound `Cc1cccc(-n2nc(C(=O)NCc3ccccc3F)cc2-c2ccc3ncnn3c2)n1` [Example 155, 5-([1,2,4]triazolo[1,5-α]pyridin-6-yl)-N-(2-fluorobenzyl)-1-(6-methylpyridin-2-yl)-1H-pyrazole-3-carboxyamide] gave an IC50 of 13 nM.

For the compound `Cc1cccc(-n2nc(C(=O)NCc3cccc(F)c3)cc2-c2ccc3ncnn3c2)n1` [Example 156, 5-([1,2,4]triazolo[1,5-α]pyridin-6-yl)-N-(3-fluorobenzyl)-1-(6-methylpyridin-2-yl)-1H-pyrazole-3-carboxyamide], the IC50 is 22 nM.
